Source: patent US6906077B1, “Use of neurotrophic factor stimulators for the treatment of ophthalmic neurodegenerative diseases” (Alcon Manufacturing, Ltd., priority 1998, dated 2005)

Key:
[1] = test system: RGCs (retinal ganglion cells); test: Retinal Ganglion Cell Survival Assay (serum deprivation); format: cell-based, Neonatal, Sprague-Dawley rats; conditions: cultured without serum; Propentofylline 100 μM; 3 days after serum removal; survival with serum = 100%; mean and SEM (n = 6)
Excerpt: Retinal Ganglion Cell Survival Assay:
Techniques for the isolation and culture of RGCs were adapted from those reported by Takahashi N. et al., Rat retinal ganglion cells in culture. Exp. Eye Res. volume 53, pages 565-572 (1991). […] Two to 4 days later, retina cells were dissociated. Cultured RGCs were identified by sufficient Di-I fluorescence to be observed visually using a fluorescent microscope.
Neonatal, Sprague-Dawley rats, 2-5 days old, were anesthetized by hypothermia, after which, a 2 mm midline opening was made in the scalp just caudal to the traverse sinus. The tip of the injection needle (30 gauge) was inserted 6 mm below the top of the skull, and a 5 μl Di-I solution, containing 3 mg/ml Di-I (1,1′-dioctadecyl-3,3,3′,3′-tetramethylindo-carbocyanine perchlorate (Molecular Probes, Eugene, Oreg.) in 90% ethanol and 10% dimethylsulfoxide, was injected. The wound was then covered with a drop of Flexible Collodion (Amend Drug & Chemical Co., Irvington, N.J.). Rats were returned to their mother after warming and recovery from anesthesia.
Two to 4 days after Di-I injection, rats were anesthetized by hypothermia and sacrificed by decapitation. Their eyes were enucleated and placed in Dulbecco's modified Eagle's medium: Nutrient mixture F12 (1:1; DMEM/F12, Gibco Co., Grand Island, N.Y.). The retina from each eye was detached and isolated. […]

axotomized RGCs = conditions: single intravitreal injection of 5 μg on Day 0; one week after; untreated retinas lost nearly half of the axotomized RGCs; cited from earlier work

| Molecule | RGC Survival (%) [1] [%] | survival of axotomized RGCs (axotomized RGCs) |
| --- | --- | --- |
| CCCn1cnc2c1c(=O)n(CCCCC(C)=O)c(=O)n2C [Propentofylline, propentofylline] | 96.9 ± 4.8 | – |
| brain-derived neurotrophic factor (protein, UniProt P23560 19-247, looked up) Neurotrophic factor BDNF …: APMKEANIRGQGGLAYPGVRTHGTLESVNGPKAGSRGLTSLADTFEHVIEELLDEDQKVRPNEENNKDADLYTSRVMLSSQVPLEPPLLFLLEEYKNYLDAANMSMRVRRHSDPARRGELSVCDSISEWVTAADKKTAVDMSGGTVTVLEKVPVSKGQLKQYFYETKCNPMGYTKEGCRGIDKRHWNSQCRTTQSYVRALTMDSKKRIGWRFIRIDTSCVCTLTIKRGR | – | virtually all RGCs were present |
